# Data published in patent publication US20260317272A1, “USE OF STROBILURIN TYPE COMPOUNDS FOR COMBATING PHYTOPATHOGENIC FUNGI CONTAINING AN AMINO ACID SUBSTITION F129L IN THE MITOCHONDRIAL CYTOCHROME B PROTEIN CONFERRING RESISTANCE TO QO INHIBITORS XVI” (priority 2023, published 2026).
# Legend:
# Puccinia triticina = assay: Use Example 15: activity against Puccinia triticina (PUCCRT, brown rust on wheat) in field; assay type: in vivo; details: for Efficacy, %: Abbot's formula, B23; for infection rate, %: B23 (23 days after second treatment), flag leaf
# Protocol: Use Example 15. Activity Against Puccinia triticina (PUCCRT, Brown Rust on Wheat) in Field
# Trials were conducted under field conditions in Spain. Spring wheat was planted and grown with adequate supply of water and nutrients. Two applications (A and B) of the test compounds were made at onset of disease (application A) and at second application at an interval of 22 days (application B). The spray solutions were prepared by mixing experimental formulations of the test compounds (50 g/L EC) in water, adding 124 g/ha Plurafac LF301 and Plurafac LF1312 (BASF, low-foaming non-ionic surfactants consisting of alkoxylated, predominantly unbranched fatty alcohols containing higher alkene oxides alongside ethylene oxide), respectively. The spray solutions were applied with 300 I/ha spray volume with a flat fan nozzle.
# The infestation levels for brown rust (Puccinia triticina) were evaluated 23 days after the second fungicide treatment (B23), a mean value across the flag leaf level was calculated. In addition, efficacy was calculated using Abbot's formula as in use example 14.
# Alternaria solani = assay: Use Example 1: preventative fungicidal control of early blight on tomatoes (ALTESO P1); assay type: in vivo; details: 63 ppm, tomato, treated 1 day before inoculation, F129L strain, assessed after 5 days, untreated 85
# Protocol: (§1) The compound was dissolved in a mixture of acetone and/or dimethylsulfoxide and the wetting agent/emulsifier Wettol, which is based on ethoxylated alkylphenoles, in a ratio (volume) solvent-emulsifier of 99 to 1 to give a total volume of 5 ml. Subsequently, water was added to total volume of 100 ml. This stock solution was then diluted with the described solvent-emulsifier-water mixture to the final concentration given in the tables below.
# Use Example 1. Preventative Fungicidal Control of Early Blight on Tomatoes (Alternaria solani) (ALTESO P1)
# Young seedlings of tomato plants were grown in pots. These plants were sprayed to run-off with previously described spray solution, containing the concentration of active ingredient or mixture mentioned in the table below. The next day the treated plants were inoculated with an aqueous suspension of Alternaria solani. The strain used contains the amino acid substitution F129L in the mitochondrial cytochrome b protein conferring resistance to Qo inhibitors. Then the trial plants were immediately transferred to a humid chamber. After 5 days at 18 to 20° C. and a saturated relative humidity, the extent of fungal attack on the leaves was visually assessed as % diseased leaf area.
# Phakopsora pachyrhizi [1] = assay: Use Example 14: activity against Asian soybean rust under semi field conditions; assay type: in vivo; details: 100 g a.i./ha; for Efficacy, % / B14 Efficacy, %: Abbot's formula; for Efficacy, %: B14; for infection rate, %: B14 (14 days after second application); for B14 Efficacy, % / B14 infection rate, %: 14 days after second application, semi field, Brazil; for B14 infection rate, %: sprayed twice, 14 day interval
# Protocol: Use Example 14. Activity Against Asian Soybean Rust (Phakopsora pachyrhizi) Under Semi Field Conditions
# Soybeans were grown in an area covered with an insect proof net under natural temperature and light regime in Brazil. Seeds were sown in a tray, allowed to germinate and grow for 14-23 days, and afterwards transplanted to containers. Subsequently, the plants were grown for another 27-35 days before spray application.
# The soybean plants were sprayed twice at a spray interval of 14 days. The spray solutions were prepared by mixing experimental formulations (100 g/l SC), in water, adding the adjuvant Mees™ (BASF, soybean oil methyl ester 824.3 g/L, EC) at 0.5 I/ha. The plants were sprayed in a mobile spray cabinet with a horizontal boom. The spray solutions were applied with 500 L/ha spray volume with a flat fan nozzle.
# The plants were inoculated with natural population of Phakopsora pachyrhizi spore suspension one day after each spray application. Plants were incubated in a mobile chamber with a misting system at saturated humidity following each inoculation.
# Soybean rust infestation was assessed as percent infected leaf area at 14 days after second application (B14). These percent values were converted in efficacies. The efficacy (E) was calculated as follows using Abbot's formula: […]
# Puccinia striiformis = assay: Use Example 9: curative control of wheat stripe rust on wheat (PUCCST K4); assay type: in vivo; details: 16 ppm, untreated 90%
# Protocol: as §1
# Use Example 9. Curative Control of Wheat Stripe Rust on Wheat Caused by Puccinia striiformis (PUCCST K4)
# The first two developed leaves of potted wheat seedling were inoculated with spores of Puccinia striiformis. To ensure the success of the artificial inoculation, the plants were transferred to a chamber without light and a temperature of 5° C. for 24 h. Then the trial plants were cultivated for 3 days in a greenhouse chamber at 16° C. and a relative humidity of minimum 75%. The plants were sprayed to run-off with the previously described spray solution, containing the concentration of active ingredient or their mixture as described below. The plants were allowed to air-dry. Then the trial plants were cultivated for up to 12 days in a greenhouse chamber at 16° C. and a relative humidity of minimum 75%. The extent of fungal attack on the leaves was visually assessed as % diseased leaf area.
# Pyrenophora teres = assay: Use Example 12: control of net blotch on barley (PYRNTE P4); assay type: in vivo, Pyrenophora (syn. Drechslera) teres; details: F129L strain, inoculated seven days later, 16 ppm, untreated 80%
# Protocol: as §1
# Use Example 12. Control of Net Blotch on Barley Caused by Pyrenophora teres (PYRNTE P4)
# The first fully developed leaves of potted barley plants were sprayed to run-off previously described spray solution, containing the concentration of active ingredient or their mixture mentioned in the table below. Seven days later the treated plants were inoculated with an aqueous spore suspension of Pyrenophora (syn. Drechslera) teres. The strain used contains the amino acid substitution F129L in the mitochondrial cytochrome b protein conferring resistance to Qo inhibitors. After up to 19 days of cultivation at 20-24° C. and a relative humidity close to 70%, the extent of fungal attack on the leaves was visually assessed as % diseased leaf area.
# Phakopsora pachyrhizi [2] = assay: Use Example 2: curative control of soybean rust on soybeans (PHAKPA K2); assay type: in vivo; details: 16 ppm, F129L strain, up to 14 days, untreated 90
# Protocol: as §1
# Use Example 2. Curative Control of Soybean Rust on Soybeans Caused by Phakopsora pachyrhizi (PHAKPA K2)
# Leaves of potted soybean seedlings were inoculated with spores of Phakopsora pachyrhizi. The strain used contains the amino acid substitution F129L in the mitochondrial cytochrome b protein conferring resistance to Qo inhibitors. To ensure the success of the artificial inoculation, the plants were transferred to a humid chamber with a relative humidity of about 95% and 20 to 24° C. for 24 h. The next day the plants were cultivated for 1 day in a greenhouse chamber at 23-27° C. and a relative humidity between 60 and 80%. Then the plants were sprayed to run-off with the previously described spray solution, containing the concentration of active ingredient or their mixture as described below. The plants were allowed to air-dry. Then the trial plants were cultivated up to 14 days in a greenhouse chamber at 23-27° C. and a relative humidity between 60 and 80%. The extent of fungal attack on the leaves was visually assessed as % diseased leaf area.
# [3] = Table 8, 75 g a.i./ha, untreated infection 75%
# [4] = Table 8, 150 g a.i./ha, untreated infection 75%
# [5] = Table 8, 75 g a.i./ha, untreated 75%
# [6] = Table 8, 150 g a.i./ha, untreated 75%
# [7] = Table 10, 75 g a.i./ha, untreated infection 50%
# [8] = Table 10, 150 g a.i./ha, untreated infection 50%
# [9] = Table 10, 75 g a.i./ha, untreated 50%
# [10] = Table 10, 150 g a.i./ha, untreated 50%
# [11] = Table 3, untreated infection 56
# [12] = Table 5, untreated infection 71%
SMILES,"Efficacy, % (Puccinia triticina; [3])","Efficacy, % (Puccinia triticina; [4])","infection rate, % (Puccinia triticina; [5])","infection rate, % (Puccinia triticina; [6])",Diseased leaf area (%) (Alternaria solani),Diseased leaf area (%) (Puccinia striiformis),Diseased leaf area (%) (Pyrenophora teres),Diseased leaf area (%) (Phakopsora pachyrhizi [2]),other results
"CO/C=C(/C(=O)OC)c1cccc(C)c1CO/N=C(\COC)c1c(F)cc(F)cc1F [Compound 4, methyl (E)-3-methoxy-2-[2-[[(Z)-[2-methoxy-1-(2,4,6-trifluorophenyl)ethylidene]amino]oxymethyl]-3-methyl-phenyl]prop-2-enoate]",95%,97%,4%,2%,5%,15%,4%,5%,"Efficacy, % (Phakopsora pachyrhizi [1]; Table 6, untreated infection 62%): 66%; infection rate, % (Phakopsora pachyrhizi [1]; Table 6, untreated 62%): 21%"
"CNC(=O)/C(=N/OC)c1cccc(C)c1CO/N=C(\COC)c1c(F)cc(OC)cc1F [Compound 7, (2E)-2-[2-[[(Z)-[1-(2,6-difluoro-4-methoxy-phenyl)-2-methoxy-ethylidene]amino]oxymethyl]-3-methyl-phenyl]-2-methoxyimino-N-methyl-acetamide]",92%,97%,6%,2%,–,0%,6%,4%,"Efficacy, % (Phakopsora pachyrhizi [1]; Table 7, untreated infection 63%): 40%; infection rate, % (Phakopsora pachyrhizi [1]; Table 7, untreated 63%): 38%"
"CNC(=O)/C(=N/OC)c1cccc(C)c1CO/N=C(\COC)c1ccc(F)c(F)c1 [Compound 5, (2E)-2-[2-[[(Z)-[1-(3,4-difluorophenyl)-2-methoxy-ethylidene]amino]oxymethyl]-3-methylphenyl]-2-methoxyimino-N-methyl-acetamide]",–,–,–,–,3%,1%,4%,6%,"Efficacy, % (Puccinia triticina; [7]): 84%; Efficacy, % (Puccinia triticina; [8]): 92%; infection rate, % (Puccinia triticina; [9]): 8%; infection rate, % (Puccinia triticina; [10]): 4%; B14 Efficacy, % (Phakopsora pachyrhizi [1]; [11]): 57%; B14 infection rate, % (Phakopsora pachyrhizi [1]; Table 3, untreated 56): 24%"
"COC/C(=N\OCc1c(C)cccc1/C(=N\OC)C(=O)OC)c1c(F)cc(F)cc1F [Compound 2, methyl (2E)-2-methoxyimino-2-[2-[[(Z)-[2-methoxy-1-(2,4,6-trifluorophenyl)ethylidene]amino]oxymethyl]-3-methyl-phenyl]acetate]",23%,40%,58%,45%,13%,–,13%,2%,"B14 Efficacy, % (Phakopsora pachyrhizi [1]; Table 4, untreated infection 52): 54%; B14 infection rate, % (Phakopsora pachyrhizi [1]; Table 4, untreated 52): 24%"
"CNC(=O)/C(=N/OC)c1cccc(C)c1CO/N=C(\COC)c1c(F)cc(F)cc1F [Compound 1, (2E)-2-methoxyimino-2-[2-[[(Z)-[2-methoxy-1-(2,4,6-trifluorophenyl)ethylidene]amino]oxymethyl]-3-methyl-phenyl]-N-methyl-acetamide]",60%,89%,30%,8%,11%,0%,10%,0%,"B14 Efficacy, % (Phakopsora pachyrhizi [1]; [11]): 57%; B14 infection rate, % (Phakopsora pachyrhizi [1]; Table 3, untreated 56): 24%"
CO/C=C(/C(=O)OC)c1cccc(C)c1CO/N=C(\COC)c1ccc(F)cc1Cl [Compound 3],–,–,–,–,5%,7%,–,–,"Efficacy, % (Puccinia triticina; Table 9, 75 g a.i./ha, untreated infection 74%): 66%; Efficacy, % (Puccinia triticina; Table 9, 150 g a.i./ha, untreated infection 74%): 73%; infection rate, % (Puccinia triticina; Table 9, 75 g a.i./ha, untreated 74%): 25%; infection rate, % (Puccinia triticina; Table 9, 150 g a.i./ha, untreated 74%): 20%; Efficacy, % (Phakopsora pachyrhizi [1]; [12]): 56%; infection rate, % (Phakopsora pachyrhizi [1]; Table 5, untreated 71%): 31%"
"CO/C=C(/C(=O)OC)c1cccc(C)c1CO/N=C(\COC)c1ccc(Cl)cc1Cl [Compound 6, methyl (E)-2-[2-[[(Z)-[1-(2,4-dichlorophenyl)-2-methoxy-ethylidene]amino]oxymethyl]-3-methyl-phenyl]-3-methoxy-prop-2-enoate]",–,–,–,–,–,–,–,–,"Efficacy, % (Puccinia triticina; [7]): 40%; Efficacy, % (Puccinia triticina; [8]): 50%; infection rate, % (Puccinia triticina; [9]): 30%; infection rate, % (Puccinia triticina; [10]): 25%; Efficacy, % (Phakopsora pachyrhizi [1]; [12]): 56%; infection rate, % (Phakopsora pachyrhizi [1]; Table 5, untreated 71%): 31%"
